According to US6541638B2, “Pyrrolidine derivatives” (Hoffman-La Roche Inc., priority 2000, dated 2003):

O=C([C@@H]1C[C@@H](S)CN1S(=O)(=O)c1ccc2ccccc2c1)N(CCc1nnn[nH]1)C1CC1
melting point: 173.5 °C (dec.)
